Measurements as given in US12564622B2, “Preventing cytokine release syndrome” (priority 2017, dated 2026).
Several values for one entry are separate records, joined by “and”; a condition that tells them apart may be missing. Equal values may be shown once.

Columns and labels:
[1] = test system: C. novyi-NT therapy-induced toxicity in mice bearing large subcutaneous CT26 tumors; assay: C. novyi-NT therapy of large subcutaneous CT26 tumors (therapy-induced toxicity); assay type: in vivo, mouse (BALB/c); details: CT26 tumor-bearing mice injected with parental C. novyi-NT spores, with the indicated agent
Procedure: ANP concentrations in the supernatant of ANP-C. novyi-NT culture and in mouse plasma were measured by an Elisa kit from Ray Biotech (EIAR-ANP-1) that recognizes both human and mouse ANP. ANP in the supernatant of ANP-C. novyi-NT culture were shown biological activities as described elsewhere (Lofton et al., 1990 Biochem. Biophys. Res. Comm., 172:793-9). Briefly, bacterial supernatants were applied to cultured bovine aortic endothelial cells (BAOEC, Cell Applications Inc.) for 3 minutes. cGMP concentrations were then measured in BAOEC lysates by the Direct cGMP Elisa Kit from Enzo following the manufacture's instruction.
The colon cancer cell line CT26 was injected subcutaneously into the right flank of six to eight week old female Balb/C mice as described elsewhere (Qiao et al., 2011 Oncotarget, 2:59-68). Tumor sizes were measured with a caliper and calculated as ½*L*W*H as described elsewhere (Tomayko et al., 1989 Can. Chemother. Pharmacol., 24:148-54). When tumors reached 600-900 mm^3 after about two weeks, 12×10^6 spores of C. novyi-NT or ANP-C. novyi-NT at 3×10^6/μl were injected intratumorally into 4 central parts of the tumor with a 32 G Hamilton syringe needle. The bacteria typical germinated in the tumors within 24 hours, turning them necrotic. Hydration of the mice was supported by daily subcutaneous injections of […] saline. Human ANP (Sigma) was dissolved in saline, loaded in mini-osmotic pumps (ALZET) with a release rate of 12 μg/day and implanted subcutaneously in the back of mice 12 hours before the spore injection. Pumps loaded with saline served as controls. Metyrosine was dissolved in PBS and injected IP at 60 mg/kg/day for three days before the C. novyi injection to deplete catecholamines in storage. Two hours after the spore injection, 60 mg/kg of metyrosine was injected intraperitoneally (IP). For each of the next three days, IP injections of metyrosine at 30 mg/kg were administered. Control groups were injected with PBS at the same time points.
Blood samples were collected into tubes containing 5 mM EDTA and 4 mM sodium metabisulfite after puncturing the facial vein or (terminally) by cardiac puncture. Subsequently, the samples were centrifuged and the plasmas were stored at −80° C. prior to analysis. Catecholamines (dopamine, norepinephrine and epinephrine) were measured using the 3-CAT Research ELISA kit from Labor Diagnostika Nord GmbH/Rocky Mountain Diagnostics. Cytokines were measured using Luminex assays based on Millipore Mouse and Human Cytokine/Chemokine panels.
ANP concentrations in the supernatant of ANP-C. novyi-642 NT culture and in mouse plasma were measured with an Elisa kit from Ray Biotech (EIAR-ANP-1) that recognizes both human and mouse ANP. […] Briefly, bacterial supernatants were applied to cultured bovine aortic endothelial cells (BAOEC, Cell Applications Inc.) for 3 minutes. cGMP concentrations were then measured in BAOEC lysates by the Direct cGMP Elisa Kit from Enzo following the manufacture's instruction.
The colon cancer cell line CT26 was injected subcutaneously into the right flank of six to eight weeks old female Balb/C mice as described elsewhere (see, e.g., Qiao et al. 2011 Oncotarget 2:59-68). Tumor sizes were measured with a caliper and calculated as ½*L*W*H as described elsewhere (see, e.g., Tomayko et al. 1989 Cancer Chemother Pharmacol 24:148-154). When tumors reached 600-900 mm^3 after about two weeks, 12×10^6 spores of C. novyi-NT or ANP-C. novyi-NT at 3×10^6/μl were injected intratumorally into 4 central parts of the tumor with a 32 G Hamilton syringe needle. The bacteria typical germinated in the tumors within 24 hours, turning them necrotic. Hydration of the mice was supported by daily subcutaneous injections of 500 μl saline. Human ANP (Sigma) was dissolved in saline, loaded in mini-osmotic pumps (ALZET) with a release rate of 12 μg/day and implanted subcutaneously in the back of mice 12 hours before the spore injection. Pumps loaded with saline served as controls. […]

[2] = test system: co-culture of hCART19 and Raji cells; assay: In vitro co-culture of Raji and hCART19 cells; assay type: cell-based, human; details: co-culture stimulated with epinephrine 15 ng/ml; CHX 10 μg/ml
Description: Human CD19scFv-CD28-4-1BB-CD3ζ CAR-T cells (PM-CAR1003) were purchased from Promab Biotechnologies and maintained less than 7 days in AIM-V medium (GIBCO) supplemented with 300 IU/ml of hIL2 (Peprotech), 5% FBS and antibiotics (Car-T medium).

[3] = test system: LPS-injected BALB/c mice; assay type: in vivo, mouse (BALB/c); details: for mortality: LPS-treated mice, adrenoceptor blockers (α1, α2, β1, β2); for disease course (mortality, catecholamines, IL-6, TNF-α, MIP-2, KC) versus LPS only: catecholamine by subcutaneous osmotic pump plus sublethal dose of LPS
Procedure: LPS from Escherichia coli 0111:B4 was formulated as a 10 mg/ml solution in water and stored in −80° C. LPS was injected intraperitoneally at a dose of 3.5 mg/kg. […] Human ANP (Sigma) was dissolved in saline, loaded in mini-osmotic pumps (ALZET) with a release rate of 12 μg/day and implanted subcutaneously in the back of mice 12 hours before the LPS injection. Mice implanted with pumps loaded with saline served as controls. […] […] The control groups were injected with PBS. […] Hydration of mice was supported by daily subcutaneous injection of 0.5 ml saline.
LPS from Escherichia coli 0111:B4 was formulated as a 10 mg/ml solution in water and stored in −80° C. In Balb/C mice, LPS was injected intraperitoneally at a lethal dose of 3.5 mg/kg. […] In experiments with catecholamine pumps, a sublethal dose with 15-35% death rate was optimized in Balb/C mice. In TH+/+ and TH^ΔLysM mice with C57BL/6 background, a lethal dose was optimized at 5 mg/kg. Human ANP (Sigma) was dissolved in saline, loaded in mini-osmotic pumps (ALZET) with a release rate of 12 μg/day and implanted subcutaneously in the back of mice 12 hours before the LPS injection. Mice implanted with pumps loaded with saline served as controls. Metyrosine was freshly dissolved in PBS and injected IP at the indicated doses for three days prior to the LPS treatment. One hour before the LPS injection, metyrosine was injected into the lower abdomen contralateral to the side of LPS injection. The control groups were injected with PBS. For the following 3 days, metyrosine was injected IP at reduced indicated doses. Hydration of mice was supported by daily subcutaneous injection of 0.5 ml saline.

[4] = incubation in media for 24 hours at 37° C.
[5] = test system: polymicrobial peritoneal sepsis induced by CLP; assay: Cecal ligation and puncture (CLP) sepsis; assay type: in vivo, mouse (C57BL/6); details: antibiotic alone, from 20 hours after CLP
Procedure: (§1) Cecal ligation and puncture (CLP) was performed as described elsewhere (Rittirsch et al., 2009 Nature Protocols, 4:31-6). Briefly, six-to-eight week old female C57BL/6 mice were anesthetized and following abdominal incision, the cecum was ligated at about 14 the distance from the luminal entry to its tip. The ligated cecum was punctured through and through with a 22 G needle at ½ and ¾ the distance from the luminal entry to its tip. A small amount of the cecal content was gently pushed out of the four openings into the peritoneum. Subsequently, the abdominal muscles were sutured and the skin was closed with two staples. Five hundred microliters of saline were immediately injected subcutaneously to the mice. For the groups treated with antibiotics, imipenem (Sigma) was injected subcutaneously at 25 mg/kg starting from 20 hours after CLP, with a schedule of twice a day on day one and once a day thereafter for 10 days. Human ANP (Sigma) was dissolved in saline, loaded in mini-osmotic pumps (ALZET) with a release rate of 12 μg/day and implanted subcutaneously in the back of mice 12 hours before the CLP, with pumps loaded with saline serving as controls. Metyrosine was freshly dissolved in PBS and injected IP at 60 mg/kg/day for three days before the CLP. Twenty minutes before the CLP, metyrosine was injected at 60 mg/kg IP into the right side. The control groups were injected with PBS. For the following 4 days, metyrosine was injected at 30 mg/kg/day IP into the right side. Hydration of mice was supported by daily subcutaneous injection of 0.5 ml saline.
as §1, with “CLP” for “Cecal ligation and puncture (CLP)”, “(see, e.g., Rittirsch” for “(Rittirsch”, “2008 Rev Immunol 8:776-787).” for “2009 Nature Protocols, 4:31-6).”, “6-8 weeks” for “six-to-eight week”, “¼” for “14”, “days.” for “days. Human ANP (Sigma) was dissolved in saline, loaded in mini-osmotic pumps (ALZET) with a release rate of 12 μg/day and implanted subcutaneously in the back of mice 12 hours before the CLP, with pumps loaded with saline serving as controls.”

For `Cc1ccc2nc(NCCN)c3ncc(C)n3c2c1` [BMS-345541], the “effect on survival (words)” value [1] was “no significant improvement in survival” and the “effect on survival (words)” value ([1]; listed as BMS345541) was “did not improve survival”.

With `C[C@@H]1C[C@@H]([C@H](O)CC2CC(=O)NC(=O)C2)C(=O)[C@@H](C)C1` [CHX, Cycloheximide] the “increase of catecholamines and cytokines (TNF-α, MIP-1α, IFN-γ, GM-CSF)” value [2] was “greatly suppressed”.

In the case of `Cc1ccc(OCC(O)C(C)NC(C)C)c2c1CCC2` (stereo not shown) [ICI 118551], the mortality [3] is reported as “did not reduce mortality”.

In the case of `COC1(C2=NCCN2)COc2ccccc2O1` (stereo not shown) [RX 821002], the mortality [3] is reported as “did not reduce mortality”.

In the case of `NCCc1ccc(O)c(O)c1` [dopamine], the “disease course (mortality, catecholamines, IL-6, TNF-α, MIP-2, KC) versus LPS only” value [3] is reported as “absent”.

For `CNC[C@H](O)c1ccc(O)c(O)c1` [epinephrine, (−)-epinephrine], the “disease course (mortality, catecholamines, IL-6, TNF-α, MIP-2, KC) versus LPS only” value [3] was “earlier onset and exacerbated disease course”, the animal survival ([3]; mouse, in vivo) was “no effect on animal survival” and the cytokine release ([3]; mouse, in vivo) was “moderately stimulate cytokine release”. The stability in media [4] was “all detectable epinephrine was degraded”.

For `C[C@@H](O)[C@H]1C(=O)N2C(C(=O)O)=C(SCCN=CN)C[C@H]12` [imipenem], the “mice that died after CLP” value [5] was 88% and > 90%.

With `COCCc1ccc(OCC(O)CNC(C)C)cc1` (stereo not shown) [metoprolol] the mortality [3] was “did not reduce mortality”.

In the case of `Cc1ncc([N+](=O)[O-])n1CCO` [metronidazole], the “effect on survival (words)” value [1] is reported as “did not protect animals from sepsis”.

With `NC[C@H](O)c1ccc(O)c(O)c1` [norepinephrine] the “disease course (mortality, catecholamines, IL-6, TNF-α, MIP-2, KC) versus LPS only” value [3] was “less pronounced”.

For `COc1cc2nc(N3CCN(C(=O)c4ccco4)CC3)nc(N)c2cc1OC` [prazosin], the “production of catecholamines and cytokines” value ([3]; 24 hours after LPS, α1 blockade) was “suppressed the production of catecholamines and cytokines” and the mortality [3] was “substantially reduced mortality”.
